From patent US7812022B2 (GlaxoSmithKline LLC, priority 2004, dated 2010)
Like-named read-outs stand apart in the source and are kept apart here.

Columns and labels:
ErbB2 or EGFR = biological target: T1, ErbB2 or EGFR; experiment: ErbB family substrate phosphorylation enzyme assay (HTRF), Method A or Method B; format: biochemical
T1 construct: enzymes purified from a baculovirus expression system; Reagent production was conducted essentially as described in Brignola, P. S., et al, (2002) J. Biol. Chem. 277(2): 1576-1585
Method: Compounds of the present invention were tested for EGFR, ErbB-2, and ErbB-4 protein tyrosine kinase inhibitory activity in substrate phosphorylation assays using enzymes purified from a baculovirus expression system. Reagent production was conducted essentially as described in Brignola, P. S., et al, (2002) J. Biol. Chem. 277(2): 1576-1585.
The method measures the ability of the isolated enzyme to catalyse the transfer of the gamma-phosphate from ATP onto the tyrosine residue of a biotinylated synthetic peptide referenced “Peptide C” in Brignola, P. S., et al, (2002) J. Biol. Chem. 277(2):1576-1585. The extent of tyrosine phosphorylation was measured using an anti-phosphotyrosine antibody, and quantified by homogenous time-resolved fluorescence (HTRF).
Reactions were performed in black 384-well polystyrene flat-bottom plates in a final volume of 20 ul. Assays were performed by adding 10 μl of each of the following solutions, substrate Mix and enzyme mix: The Substrate mix contained 100 mM 3-[N-morpholino]propanesulfonic acid (MOPS) (pH 7.5), 2 mM MnCl2, 20 μM ATP, 0.01% Tween-20, 0.1 mg/mL (BSA), 0.8 uM peptide substrate, and 1 mM dithiothreitol. The enzyme mix contained 100 mM MOPS (pH7.5); 0.01% Tween-20; 0.1 mg/mL BSA, and either 0.8 nM EGFR, 10 nM ErbB2, or 1 nM ErbB4
During the course of these studies, two separate methods have been used to measure the potency of compounds. In Method A, the substrate mix was added to the compound plates first, then the reaction was started by adding the enzyme mix. In Method B, the enzyme mix was added to the compound plates and the plates were incubated at 20° C. for 1 hour. The reactions were then started by adding the substrate mix.
After initiating the reaction with either method describe above, the reactions were allowed to proceed for 90 minutes at 20° C. The reactions were then terminated by the addition of 20 μl 100 mM EDTA to each well. 40 μl/well of HTRF detection mix were added to the assay plates. The final concentrations of the detection reagents were: 100 mM HEPES (pH7.5), 0.1 mg/mL BSA, 15 nM streptavidin-labeled allophycocyanin (PerkinElmer), and 1 nM europium-labeled anti-phosphotyrosine antibody (PerkinElmer). Assay plates were left unsealed and were counted in a Wallac Multilabel Counter 1420 (PerkinElmer).
Compounds under analysis were dissolved in Me2SO to 1.0 mM and serially diluted 1 to 3 with Me2SO through twelve dilutions. 1 μl of each concentration was transferred to the corresponding well of an assay plate. This creates a final compound concentration range from 0.00027 to 47.6 μM.
The data for dose responses were plotted as % Inhibition calculated with the data reduction formula 100*(1−(U1−C2)/(C1−C2)) versus concentration of compound where U is the unknown value, C1 is the average control value obtained for 4.76% DMSO, and C2 is the average control value obtained for 0.035 M EDTA. Data were fitted with a curve described by: y=((Vmax*x)/(K+x))+Y^2 where Vmax is the upper asymptote, Y2 is the Y intercept, and K is the IC50. The results for each compound were recorded as pIC50s, calculated as follows: pIC50=−Log 10(K)

[1] = system: BT474 and HN5 tumor cell lines; experiment: Methylene blue growth inhibition assay (cellular Method A); format: cell-based, Human; conditions: 3 days, read-out: Activity (Method): growth inhibition IC50 class
Method: Human breast (BT474) and head and neck (HN5) were cultured in low glucose DMEM (Life Technologies 12320-032) containing 10% fetal bovine serum (FBS). Human colon tumor cells (Colo205) were cultured in DMEM (Invitrogen, 10564) containing 10% FBS. The SV40 transformed human mammary epithelial cell line HB4a was transfected with either human H-ras cDNA (HB4a r4.2) or the human c-ErbB2 cDNA (HB4a c5.2). The HB4a clones were cultured in RPMI containing 10% FBS, insulin (5 g/mL), hydrocortisone (5 g/mL), supplemented with the selection agent hygromycin B (50 g/mL). All lines were grown in a humidified incubator at 37° C. in 95% air, 5% CO2. Cells were harvested using trypsin/EDTA, counted using a haemocytometer, and plated in 100 microliters of the appropriate media, at the following densities, in a 96-well tissue culture plate (Falcon 3075): BT474 10,000 cells/well, HN5 3,000 cells/well. The next day, compounds were diluted in DMEM containing […] gentamicin, at twice the final required concentration, from 10 mM stock solutions in DMSO. 100 microliters/well of these dilutions were added to the 100 microliters of media currently on the cell plates. Medium containing 0.6% DMSO was added to control wells. Compounds diluted in DMEM were added to all cell lines. The final concentration of DMSO in all wells was 0.3%. Cells were returned to the incubator (37° C., 10% CO2) for 3 days. Medium was then removed by aspiration. Cell biomass was estimated by staining cells with 90 microliters per well methylene blue (Sigma M9140, 0.5% in 1:1 ethanol:water), and incubation at rt for at least 30 minutes. Stain was removed, and the plates rinsed by immersion in deionized water and air-dried. To release stain from the cells 100 microliters of solubilization solution was added (1% N-lauroyl sarcosine, Sodium salt, Sigma L5125, in PBS), and plates were shaken gently for about 30 minutes. Optical density at 620 nm was measured on a microplate reader. Percent inhibition of cell growth was calculated relative to vehicle treated control wells. Concentration of compound that inhibits 50% of control cell growth (IC50) was interpolated using nonlinear regression (Levenberg-Marquardt) and the equation, y=Vmax*(1−(x/(K+x)))+Y2, where “K” was equal to the IC50. Method B: Celltiter Glo® Growth Inhibition Assays

[2] = Method B: enzyme mix pre-incubated with compound 1 hour at 20° C., started with substrate mix
[3] = Method A: substrate mix added first, reaction started with enzyme mix

Molecule	Activity (Method): pIC50 class against ErbB2 or EGFR (ErbB2 or EGFR; [2])	IC50 ([1]; Homo sapiens, BT-474, 72 h) [nM]	Activity (Method): pIC50 class against ErbB2 or EGFR (ErbB2 or EGFR; [3])	IC50 [1] [nM]
O=C(Nc1cccc(-c2nn3ccccc3c2-c2ccnc(Nc3cccc(F)c3)n2)c1)c1cc(F)ccc1F [Example 39, 2,5-Difluoro-N-[3-(3-{2-[(3-fluorophenyl)amino]-4-pyrimidinyl}pyrazolo[1,5-a]pyridin-2-yl)phenyl]benzamide]	+++ (B) (at least one pIC50 measurement of greater than 7 against either ErbB2 or EGFR)	100 to 1000	–	–
O=C(Nc1cccc(-c2nn3ccccc3c2-c2ccnc(Nc3cccc(F)c3)n2)c1)c1ccccc1OC(F)(F)F [Example 68, N-[3-(3-{2-[(3-fluorophenyl)amino]-4-pyrimidinyl}-pyrazolo[1,5-a]pyridin-2-yl)phenyl]-2-[(trifluoromethyl)oxy]benzamide]	++ (B) (at least one pIC50 measurement greater than 6 against either ErbB2 or EGFR but no measurement greater than pIC50 of 7)	100 to 1000	–	–
COCCOc1ccc(Nc2nccc(-c3c(-c4cccc(NC(=O)c5c(F)cccc5F)c4)nn4ccccc34)n2)cc1Cl [Example 125, N-[3-(3-{2-[(3-Chloro-4-{[2-(methyloxy)ethyl]oxy}-phenyl)amino]-4-pyrimidinyl}pyrazolo[1,5-a]pyridin-2-yl)phenyl]-2,6-difluorobenzamide]	–	< 100	+++ (A) (at least one pIC50 measurement of greater than 7 against either ErbB2 or EGFR)	–
O=C(Nc1cccc(-c2nn3ccccc3c2-c2ccnc(Nc3ccc4c(c3)OCCO4)n2)c1)c1c(F)cccc1F [Example 114, N-(3-{3-[2-(2,3-dihydro-1,4-benzodioxin-6-ylamino)-4-pyrimidinyl]pyrazolo[1,5-a]pyridin-2-yl}phenyl)-2,6-difluorobenzamide]	–	< 100	+++ (A) (at least one pIC50 measurement of greater than 7 against either ErbB2 or EGFR)	–
O=C(Nc1cccc(-c2nn3ccccc3c2-c2ccnc(Nc3cccc(F)c3)n2)c1)c1ccnc(Cl)c1 [Example 73, 2-Chloro-N-[3-(3-{2-[(3-fluorophenyl)amino]-4-pyrimidinyl}pyrazolo[1,5-a]pyridin-2-yl)phenyl]-4-pyridinecarboxamide]	++ (B) (at least one pIC50 measurement greater than 6 against either ErbB2 or EGFR but no measurement greater than pIC50 of 7)	> 1000	–	–
O=C(Nc1cccc(-c2nn3ccccc3c2-c2ccnc(Nc3ccccc3)n2)c1)c1ccccn1 [Example 140]	–	100 to 1000	++ (A) (at least one pIC50 measurement greater than 6 against either ErbB2 or EGFR but no measurement greater than pIC50 of 7)	–
O=C(Nc1cccc(-c2nn3ccccc3c2-c2ccnc(Nc3cccc(F)c3)n2)c1)c1cccnc1 [Example 66, N-[3-(3-{2-[(3-fluorophenyl)amino]-4-pyrimidinyl}pyrazolo[1,5-a]pyridin-2-yl)phenyl]-3-pyridinecarboxamide]	++ (B) (at least one pIC50 measurement greater than 6 against either ErbB2 or EGFR but no measurement greater than pIC50 of 7)	100 to 1000	–	–
CN(C)CC(=O)Nc1ccc(Nc2nccc(-c3c(-c4cccc(NC(=O)c5c(F)cccc5F)c4)nn4ccccc34)n2)cc1 [Example 113, N-(3-{3-[2-({4-[(N,N-dimethylglycyl)amino]phenyl}-amino)-4-pyrimidinyl]pyrazolo[1,5-a]pyridin-2-yl}phenyl)-2,6-difluorobenzamide]	+++ (B) (at least one pIC50 measurement of greater than 7 against either ErbB2 or EGFR)	< 100	–	–
O=C(Nc1cccc(-c2nn3ccccc3c2-c2ccnc(Nc3ccc(N4CCOCC4)cc3)n2)c1)c1c(F)cccc1F [Example 27, 2,6-Difluoro-N-{3-[3-(2-{[4-(4-morpholinyl)phenyl]amino}-4-pyrimidinyl)pyrazolo[1,5-a]pyridin-2-yl]phenyl}benzamide]	++ (B) (at least one pIC50 measurement greater than 6 against either ErbB2 or EGFR but no measurement greater than pIC50 of 7)	< 100	–	–
O=C(Nc1cccc(-c2nn3ccccc3c2-c2ccnc(Nc3ccc(N4CCOCC4)c(F)c3)n2)c1)c1c(F)cccc1F [Example 99, 2,6-Difluoro-N-{3-[3-(2-{[3-fluoro-4-(4-morpholinyl)-phenyl]amino}-4-pyrimidinyl)pyrazolo[1,5-a]pyridin-2-yl]phenyl}benzamide]	–	< 100	+++ (A) (at least one pIC50 measurement of greater than 7 against either ErbB2 or EGFR)	–
COc1ccc(Nc2nccc(-c3c(-c4cccc(NC(=O)c5c(F)cccc5F)c4)nn4ccccc34)n2)cc1N1CCNCC1 [Example 111, 2,6-Difluoro-N-{3-[3-(2-{[4-(methyloxy)-3-(1-piperazinyl)phenyl]amino}-4-pyrimidinyl)pyrazolo[1,5-a]pyridin-2-yl]phenyl}benzamide]	+++ (B) (at least one pIC50 measurement of greater than 7 against either ErbB2 or EGFR)	< 100	–	–
N-[3-(3-{2-[4-(4-Cyanophenyl)phenylamino]-4-pyrimidinyl}-7-trifluoropyrazolo[1,5-b]pyridin-2-yl)phenyl]-2,6-difluorobenzamide [Example 93]	–	–	++ (A) (at least one pIC50 measurement greater than 6 against either ErbB2 or EGFR but no measurement greater than pIC50 of 7)	100 to 1000
O=C(Nc1cccc(-c2nn3ccccc3c2-c2ccnc(Nc3ccc(N4CCCC4)c(F)c3)n2)c1)c1c(F)cccc1F [Example 148, 2,6-Difluoro-N-{3-[3-(2-{[3-fluoro-4-(1-pyrrolidinyl)-phenyl]amino}-4-pyrimidinyl)pyrazolo[1,5-a]pyridin-2-yl]phenyl}benzamide]	–	< 100	+++ (A) (at least one pIC50 measurement of greater than 7 against either ErbB2 or EGFR)	–
